Tests used:
[1] = target: DHFR (Rv2763c) (Mycobacterium tuberculosis, UniProt P9WNX1); format: binding; settings: melting curve, M. tuberculosis lysate; Tm of DHFR without P218 is 57° C.
[2] = target: Rv0289/EspG3 (Mycobacterium tuberculosis, UniProt P9WJC7)
Chain of Rv0289/EspG3 (P9WJC7 whole entry): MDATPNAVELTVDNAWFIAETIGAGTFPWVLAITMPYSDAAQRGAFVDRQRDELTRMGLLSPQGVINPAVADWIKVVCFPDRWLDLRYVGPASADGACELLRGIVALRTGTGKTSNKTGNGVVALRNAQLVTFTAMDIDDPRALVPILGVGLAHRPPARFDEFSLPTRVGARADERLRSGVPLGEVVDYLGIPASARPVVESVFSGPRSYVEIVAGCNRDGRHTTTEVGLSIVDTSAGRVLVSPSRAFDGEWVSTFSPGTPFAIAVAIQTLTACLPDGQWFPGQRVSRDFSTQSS

Chain of DHFR (Rv2763c) (P9WNX1 whole entry): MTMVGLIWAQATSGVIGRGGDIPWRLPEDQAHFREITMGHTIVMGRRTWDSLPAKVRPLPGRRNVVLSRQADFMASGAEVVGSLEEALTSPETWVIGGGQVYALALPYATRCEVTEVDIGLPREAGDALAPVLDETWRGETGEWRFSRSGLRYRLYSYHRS

For `CCc1nc(N)nc(N)c1OCCCOc1ccccc1CCC(=O)O` [P218], the “temperature at the inflection point (Tm) of DHFR in the presence of P218” value [1] was 60.9 °C and the “difference in the Tm values in the presence and absence of compound” value [2] was “no difference”.
